Measurements as given in patent US20190002988A1, “METHOD OF USING A RET FUSION GENE AS A BIOMARKER TO SELECT NON SMALL CELL LUNG CANCER (NSCLC) AND THYROID CANCER PATIENTS FOR A CANCER TREATMENT” (Boehringer Ingelheim International GmbH, priority 2015, published 2019).

Legend:
[1] = tested on: endothelial- and smooth muscle cells and pericytes; assay: signalling in endothelial- and smooth muscle cells and pericytes; assay type: cell-based
[2] = tested on: EGFR and ALK wild-type advanced NSCLC with CCDC6-RET fusion gene; assay: Phase I case study, docetaxel plus nintedanib in a patient with CCDC6-RET fusion NSCLC; assay type: in vivo, human; conditions: one patient
Description: The present study is a case study of long-term efficacy of docetaxel plus nintedanib (BIBF 1120; 3-Z-[1-(4-(N-((4-methyl-piperazin-1-yl)-methylcarbonyl)-N-methyl-amino)-anilino)-1-phenyl-methylene]-6-methoxycarbonyl-2-indolinone) over 33 months in a never smoking person with EGFR and ALK wild-type non-small cell lung cancer NSCLC.
The present case was a never smoking person with EGFR and ALK wild-type advanced NSCLC. After failure of first-line platinum-based chemotherapy, the patient was enrolled in a phase I dose-escalation study of nintedanib combined with docetaxel for Japanese patients with advanced NSCLC on June, 2010, with oral administration of nintedanib 150 mg twice daily plus docetaxel 75 mg/m^2 every 3 weeks (Okamoto I, Kaneda H, Satoh T et al. Phase I safety, pharmacokinetic, and biomarker study of BIBF 1120, an oral triple tyrosine kinase inhibitor in patients with advanced solid tumors. Mol Cancer Ther 2010; 9: 2825-2833.). […] A total of 48 treatment cycles (26 cycles of therapy with nintedanib alone) had been administered over 33 months until disease progression on March, 2013 (FIG. 1). To identify mutations which are highly susceptible to therapy with nintedanib, next-generation sequencing panels were applied that cover both mutational hotspots in 22 genes related to lung and colon tumorigenesis using DNA (FIG. 4) as well as 72 major variants of ALK, RET, ROS1, and NTRK1 fusion transcripts using RNA extracted from non-small lung tissues obtained by transbronchial biopsy (FIG. 5). Multiplex genetic testing has identified CCDC6-RET fusion gene in tissue specimens for lung cancer diagnosis (FIG. 2), and no other actionable mutations were identified.

[3] = preclinical studies, oral bioavailability; assay type: in vivo
[4] = tested on: vascular endothelial growth factor receptors (VEGFRs); assay: preclinical studies, inhibition of VEGFRs; assay type: biochemical
[5] = tested on: fibroblast growth factor receptors (FGFRs); assay: preclinical studies, inhibition of FGFRs; assay type: biochemical
[6] = tested on: tumor vessel density; assay: tumor vessel density; conditions: in vivo
[7] = tested on: xenograft models of human solid tumors; conditions: Hilberg et al. 2008; cited from earlier work
[8] = tested on: advanced NSCLC; conditions: combination with docetaxel; predefined patients with adenocarcinoma tumor histology; Reck et al. 2014; cited from earlier work
[9] = biological target: VEGFR2 (Homo sapiens, UniProt P35968); conditions: in vitro; Hilberg et al. 2008; cited from earlier work
Chain of VEGFR2 (P35968 20-1356, species assumed): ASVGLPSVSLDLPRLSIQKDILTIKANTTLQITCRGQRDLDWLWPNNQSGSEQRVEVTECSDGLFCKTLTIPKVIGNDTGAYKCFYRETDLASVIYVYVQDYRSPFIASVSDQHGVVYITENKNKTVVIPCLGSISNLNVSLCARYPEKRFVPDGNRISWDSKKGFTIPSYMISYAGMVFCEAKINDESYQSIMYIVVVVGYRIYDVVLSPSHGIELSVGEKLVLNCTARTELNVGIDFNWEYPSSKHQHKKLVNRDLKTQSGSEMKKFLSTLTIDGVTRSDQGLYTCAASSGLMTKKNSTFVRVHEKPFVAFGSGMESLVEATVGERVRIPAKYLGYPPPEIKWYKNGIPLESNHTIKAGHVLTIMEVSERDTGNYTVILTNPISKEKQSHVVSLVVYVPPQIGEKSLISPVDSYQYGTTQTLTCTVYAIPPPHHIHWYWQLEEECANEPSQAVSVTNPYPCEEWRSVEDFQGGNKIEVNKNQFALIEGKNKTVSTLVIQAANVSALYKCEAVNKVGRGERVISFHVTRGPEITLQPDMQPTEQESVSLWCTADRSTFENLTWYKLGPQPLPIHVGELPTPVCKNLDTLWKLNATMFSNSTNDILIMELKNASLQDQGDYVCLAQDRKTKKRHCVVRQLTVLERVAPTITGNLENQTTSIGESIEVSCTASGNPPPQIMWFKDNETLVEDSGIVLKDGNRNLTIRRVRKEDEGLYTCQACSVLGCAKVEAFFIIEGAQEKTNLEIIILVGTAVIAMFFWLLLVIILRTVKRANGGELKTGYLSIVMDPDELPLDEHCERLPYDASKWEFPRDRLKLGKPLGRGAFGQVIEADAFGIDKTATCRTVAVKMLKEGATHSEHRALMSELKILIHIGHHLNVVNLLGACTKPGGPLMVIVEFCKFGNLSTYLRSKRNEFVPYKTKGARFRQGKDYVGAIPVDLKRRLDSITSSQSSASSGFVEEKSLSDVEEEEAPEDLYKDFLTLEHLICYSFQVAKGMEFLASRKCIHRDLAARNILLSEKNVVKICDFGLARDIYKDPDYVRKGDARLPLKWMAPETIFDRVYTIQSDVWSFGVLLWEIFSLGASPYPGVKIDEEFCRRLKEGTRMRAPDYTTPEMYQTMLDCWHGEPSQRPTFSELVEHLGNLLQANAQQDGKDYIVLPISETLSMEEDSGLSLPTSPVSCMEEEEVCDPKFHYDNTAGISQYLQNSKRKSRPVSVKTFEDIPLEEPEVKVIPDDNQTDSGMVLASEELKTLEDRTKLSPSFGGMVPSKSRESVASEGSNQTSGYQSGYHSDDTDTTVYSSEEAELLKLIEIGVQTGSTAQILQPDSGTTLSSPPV

[10] = tested on: platelet-derived growth factor receptors (PDGFRs); assay: preclinical studies, inhibition of PDGFRs; assay type: biochemical

Compound | signalling in endothelial- and smooth muscle cells and pericytes [1] | treatment time until disease progression ([2]; 48 treatment cycles, 26 of them nintedanib alone after docetaxel was stopped) [months] | response ([2]; nintedanib 150 mg twice daily plus docetaxel 75 mg/m^2 every 3 weeks) | oral bioavailability [3] | inhibition of VEGFRs [4] | inhibition of FGFRs [5] | tumor vessel density [6] | tumor growth [7] | overall survival compared with docetaxel alone [8] | blockade of VEGFR2 [9] | inhibition of PDGFRs [10] | adverse events leading to discontinuation ([2]; docetaxel discontinued after 22 cycles)
COC(=O)c1ccc2c(c1)NC(=O)/C2=C(\Nc1ccc(N(C)C(=O)CN2CCN(C)CC2)cc1)c1ccccc1 [nintedanib, 3-Z-[1-(4-(N-((4-methyl-piperazin-1-yl)-methylcarbonyl)-N-methyl-amino)-anilino)-1-phenyl-methylene]-6-methoxycarbonyl-2-indolinone] | inhibits signalling | 33 | radiographic response | orally bioavailable | highly potent | highly potent | reduces tumor vessel density | delay or arrest of tumor growth | significantly and clinically meaningful improved overall survival | sustained blockade | highly potent | –
CC(=O)O[C@@]12CO[C@@H]1C[C@H](O)[C@@]1(C)C(=O)[C@H](O)C3=C(C)[C@@H](OC(=O)[C@H](O)[C@@H](NC(=O)OC(C)(C)C)c4ccccc4)C[C@@](O)([C@@H](OC(=O)c4ccccc4)[C@H]21)C3(C)C [docetaxel, reference compound] | – | – | – | – | – | – | – | – | – | – | – | lower extremity edema and fatigue
